Where only a bound is given, the exact number is not on record here.

Usually IC50 stands for the point on the concentration scale where inhibition reaches its midpoint. A lower IC50 goes with inhibition by little substance.

The experiment deals with T1, Human ATX protein (Homo sapiens, UniProt Q13822).
T1 construct: made in house
Briefly: Autotaxin (ATX) assay, FRET with FS-3 substrate. The class given is biochemical. Conditions: upper bound bins (no greater than 100, 250 or 500 nM); FS-3 2 μM, ATX 1.0 μg/mL. The procedure, abridged:
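Hydrolysis of the FRET substrate FS-3 (2 μM final) unquenches fluorescein, read at excitation 485 nm and emission 538 nm after 2 h at room temperature, protected from light. Purified human ATX (1.0 μg/mL) and compound were first incubated for 30 min in pH 7.4 Tris/salt buffer containing 1 mg/mL fatty acid-free BSA.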
For `CON(C)C(=O)c1cc2n(n1)CCCN(C(=O)OCc1cc(C(F)(F)F)cc(C(F)(F)F)c1)C2` [Example 144, 3,5-Bis(trifluoromethyl)benzyl 2-(methoxy(methyl)carbamoyl)-7,8-dihydro-4H-pyrazolo[1,5-a][1,4]diazepine-5(6H)-carboxylate], the IC50 was at most 100 nM.

`CC(=O)c1cc2n(n1)CCCN(C(=O)OCc1cc(C(F)(F)F)cc(C(F)(F)F)c1)C2` [Example 145, 3,5-Bis(trifluoromethyl)benzyl 2-acetyl-7,8-dihydro-4H-pyrazolo[1,5-a][1,4]diazepine-5(6H)-carboxylate] gave an IC50 of at most 100 nM.

For the molecule `CC(O)c1cc2n(n1)CCCN(C(=O)OCc1cc(C(F)(F)F)cc(C(F)(F)F)c1)C2` (stereo not drawn) [Example 146, 3,5-Bis(trifluoromethyl)benzyl 2-(1-hydroxyethyl)-7,8-dihydro-4H-pyrazolo[1,5-a][1,4]diazepine-5(6H)-carboxylate], the IC50 is at most 100 nM.

Turning to `CC(N)c1cc2n(n1)CCCN(C(=O)OCc1cc(C(F)(F)F)cc(C(F)(F)F)c1)C2` (stereo not drawn) [Example 147, 3,5-Bis(trifluoromethyl)benzyl 2-(1-aminoethyl)-7,8-dihydro-4H-pyrazolo[1,5-a][1,4]diazepine-5(6H)-carboxylate], the IC50 was at most 500 nM.

The molecule `CC(c1cc2n(n1)CCCN(C(=O)OCc1cc(C(F)(F)F)cc(C(F)(F)F)c1)C2)N1CCCCC1` (stereo not drawn) [Example 148, 3,5-Bis(trifluoromethyl)benzyl 2-(1-(piperidin-1-yl)ethyl)-7,8-dihydro-4H-pyrazolo[1,5-a][1,4]diazepine-5(6H)-carboxylate] came in with an IC50 of at most 100 nM.

Turning to `CC(c1cc2n(n1)CCCN(C(=O)OCc1cc(C(F)(F)F)cc(C(F)(F)F)c1)C2)N1CCC(C(=O)O)CC1` (stereo not drawn) [Example 149, 1-(1-(5-(((3,5-Bis(trifluoromethyl)benzyl)oxy)carbonyl)-5,6,7,8-tetrahydro-4H-pyrazolo[1,5-a][1,4]diazepin-2-yl)ethyl)piperidine-4-carboxylic acid], the IC50 was at most 500 nM.

`O=C(OCc1cc(Cl)cc(C(F)(F)F)c1)N1CCCn2nc(CNC3=NCCS3)cc2C1` [Example 153, 3-chloro-5-(trifluoromethyl)benzyl 2-(((4,5-dihydrothiazol-2-yl)amino)methyl)-7,8-dihydro-4H-pyrazolo[1,5-a][1,4]diazepine-5(6H)-carboxylate]: the IC50 was at most 100 nM.

For `O=C(OCc1cc(Cl)cc(C(F)(F)F)c1)N1CCCn2nc(CNC3=NCCN3)cc2C1` [Example 154, 3-chloro-5-(trifluoromethyl)benzyl 2-(((4,5-dihydro-1H-imidazol-2-yl)amino)methyl)-7,8-dihydro-4H-pyrazolo[1,5-a][1,4]diazepine-5(6H)-carboxylate], the IC50 is at most 250 nM.

Take `CC(NC1=NCCS1)c1cc2n(n1)CCCN(C(=O)OCc1cc(Cl)cc(C(F)(F)F)c1)C2` (stereo not drawn) [Example 156, 3-chloro-5-(trifluoromethyl)benzyl 2-(1-((4,5-dihydrothiazol-2-yl)amino)ethyl)-7,8-dihydro-4H-pyrazolo[1,5-a][1,4]diazepine-5(6H)-carboxylate]: the IC50 was at most 100 nM.

Molecule `CC(NC1=NCCN1)c1cc2n(n1)CCCN(C(=O)OCc1cc(Cl)cc(C(F)(F)F)c1)C2` (stereo not drawn) [Example 157, 3-chloro-5-(trifluoromethyl)benzyl 2-(1-((4,5-dihydro-1H-imidazol-2-yl)amino)ethyl)-7,8-dihydro-4H-pyrazolo[1,5-a][1,4]diazepine-5(6H)-carboxylate] displayed an IC50 of at most 250 nM.

`O=C(OCc1cc(Cl)cc(C(F)(F)F)c1)N1CCCn2nc(C(=O)N3CCNCC3)cc2C1` [Example 158, 3-chloro-5-(trifluoromethyl)benzyl 2-(piperazine-1-carbonyl)-7,8-dihydro-4H-pyrazolo[1,5-a][1,4]diazepine-5(6H)-carboxylate] displayed an IC50 of at most 100 nM.

Turning to `CN1CC2CCC1CN2C(=O)c1cc2n(n1)CCCN(C(=O)OCc1cc(Cl)cc(C(F)(F)F)c1)C2` (stereo not drawn) [Example 159, 3-chloro-5-(trifluoromethyl)benzyl 2-(5-methyl-2,5-diazabicyclo[2.2.2]octane-2-carbonyl)-7,8-dihydro-4H-pyrazolo[1,5-a][1,4]diazepine-5(6H)-carboxylate], the IC50 was at most 100 nM.

On to `C[C@H]1CNC[C@H](C)N1C(=O)c1cc2n(n1)CCCN(C(=O)OCc1cc(Cl)cc(C(F)(F)F)c1)C2` [Example 160], for which the IC50 was at most 100 nM.

`C[C@@H]1CNC[C@@H](C)N1C(=O)c1cc2n(n1)CCCN(C(=O)OCc1cc(Cl)cc(C(F)(F)F)c1)C2` [Example 161]: the IC50 is at most 100 nM.

With `CC1CNCC(C)N1C(=O)c1cc2n(n1)CCN(C(=O)OCc1cc(Cl)cc(C(F)(F)F)c1)C2` (stereo not drawn) [Example 162, 3-chloro-5-(trifluoromethyl)benzyl 2-(2,6-dimethylpiperazine-1-carbonyl)-6,7-dihydropyrazolo[1,5-a]pyrazine-5(4H)-carboxylate], the IC50 was at most 100 nM.

In the case of `C[C@@H]1CNC[C@H](C)N1C(=O)c1cc2n(n1)CCCN(C(=O)OCc1cc(C(F)(F)F)cc(C(F)(F)F)c1)C2` [Example 163], the IC50 is at most 100 nM.

In turn, `C[C@@H]1CNC[C@H](C)N1C(=O)c1cc2n(n1)CCCN(C(=O)OCc1cc(Cl)cc(C(F)(F)F)c1)C2` [Example 164] registered an IC50 of at most 100 nM.

Molecule `O=C(OCc1cc(Cl)cc(C(F)(F)F)c1)N1CCCn2nc(C(=O)N3CCC4CNCC43)cc2C1` (stereo not drawn) [Example 165] showed an IC50 of at most 100 nM.

`O=C(OCc1cc(Cl)cc(C(F)(F)F)c1)N1CCCn2nc(C(=O)N3CCC4NCCC43)cc2C1` (stereo not drawn) [Example 166] showed an IC50 of at most 100 nM.

As to `O=C(OCc1cc(Cl)cc(C(F)(F)F)c1)N1CCCn2nc(C(=O)N3CC4CCNC4C3)cc2C1` (stereo not drawn) [Example 167], the IC50 is at most 100 nM.

`CN1CC2CN(C(=O)c3cc4n(n3)CCCN(C(=O)OCc3cc(Cl)cc(C(F)(F)F)c3)C4)CC2C1` (stereo not drawn) [Example 168]: the IC50 is at most 100 nM.

On to `O=C(OCc1cc(Cl)cc(C(F)(F)F)c1)N1CCCn2nc(C(=O)N3CCC4(CCNCC4)C3)cc2C1` [Example 169], for which the IC50 is at most 100 nM.

In turn, `O=C(OCc1cc(Cl)cc(C(F)(F)F)c1)N1CCCn2nc(C(=O)N3CC4CNCC4C3)cc2C1` (stereo not drawn) [Example 170] had an IC50 of at most 100 nM.

With `N#CC1CN(C(=O)c2cc3n(n2)CCCN(C(=O)OCc2cc(Cl)cc(C(F)(F)F)c2)C3)CCN1` (stereo not drawn) [Example 171], the IC50 is at most 100 nM.

For the molecule `CCN1CCN(C(=O)c2cc3n(n2)CCCN(C(=O)OCc2cc(Cl)cc(C(F)(F)F)c2)C3)C(C)(C)C1` [Example 172], the IC50 is at most 100 nM.

`O=C(NC1=NCCS1)c1cc2n(n1)CCCN(C(=O)OCc1cc(C(F)(F)F)cc(C(F)(F)F)c1)C2` [Example 173] returned an IC50 of at most 100 nM.

For `CN1CCN(C(=O)c2cc3n(n2)CCCN(C(=O)OCc2cc(Cl)cc(C(F)(F)F)c2)C3)C2(CCC2)C1` [Example 174], the IC50 was at most 100 nM.

Consider `O=C(OCc1cc(Cl)cc(C(F)(F)F)c1)N1CCCn2nc(C(=O)N3CCNCC34CCC4)cc2C1` [Example 175], for which the IC50 was at most 100 nM.

Turning to `CN1CCN(C(=O)c2cc3n(n2)CCCN(C(=O)OCc2cc(Cl)cc(C(F)(F)F)c2)C3)C(C)(C)C1` [Example 176, 3-chloro-5-(trifluoromethyl)benzyl 2-(2,2,4-trimethylpiperazine-1-carbonyl)-7,8-dihydro-4H-pyrazolo[1,5-a][1,4]diazepine-5(6H)-carboxylate], the IC50 is at most 100 nM.

In turn, `CN1CCN(C(=O)c2cc3n(n2)CCCN(C(=O)OCc2cc(Cl)cc(C(F)(F)F)c2)C3)C(C(F)(F)F)C1` (stereo not drawn) [Example 178] showed an IC50 of at most 100 nM.

`CCN1CCN(C(=O)c2cc3n(n2)CCCN(C(=O)OCc2cc(Cl)cc(C(F)(F)F)c2)C3)C2(CC2)C1` [Example 179] gave an IC50 of at most 100 nM.

`CN1CCN(C(=O)c2cc3n(n2)CCCN(C(=O)OCc2cc(Cl)cc(C(F)(F)F)c2)C3)C2(CC2)C1` [Example 180] returned an IC50 of at most 100 nM.

As for `O=C(OCc1cc(Cl)cc(C(F)(F)F)c1)N1CCCn2nc(C(=O)N3CCNCC3C(F)(F)F)cc2C1` (stereo not drawn) [Example 181], the IC50 is at most 100 nM.

Consider `NCCCCNC(=O)c1cc2n(n1)CCCN(C(=O)OCc1cc(C(F)(F)F)cc(C(F)(F)F)c1)C2` [Example 182], for which the IC50 was at most 100 nM.

As to `CN1CCN(C(=O)c2cc3n(n2)CCCN(C(=O)OCc2cc(Cl)cc(C(F)(F)F)c2)C3)C(C#N)C1` (stereo not drawn) [Example 183], the IC50 is at most 100 nM.

Regarding `CN1CCN(C(=O)c2cc3n(n2)CCCN(C(=O)OCc2cc(Cl)cc(C(F)(F)F)c2)C3)C(C(=O)O)C1` (stereo not drawn) [Example 184], the IC50 is at most 100 nM.

As for `CN1CCN(C(=O)c2cc3n(n2)CCCN(C(=O)OCc2cc(Cl)cc(C(F)(F)F)c2)C3)CC1C(=O)O` (stereo not drawn) [Example 185], the IC50 is at most 100 nM.

With `CN1CCN(C(=O)c2cc3n(n2)CCCN(C(=O)OCc2cc(Cl)cc(C(F)(F)F)c2)C3)CC1C(F)(F)F` (stereo not drawn) [Example 186], the IC50 is at most 100 nM.

Turning to `O=C(OCc1cc(Cl)cc(C(F)(F)F)c1)N1CCCn2nc(C(=O)N3CCNC4(CC4)C3)cc2C1` [Example 187], the IC50 was at most 100 nM.

Turning to `O=C(OCc1cc(Cl)cc(C(F)(F)F)c1)N1CCCn2nc(C(=O)N3CC4CNC(C4)C3)cc2C1` (stereo not drawn) [Example 188], the IC50 is at most 100 nM.

`O=C(OCc1cc(Cl)cc(C(F)(F)F)c1)N1CCCn2nc(C(=O)N3CCNC(C(F)(F)F)C3)cc2C1` (stereo not drawn) [Example 189] displayed an IC50 of at most 100 nM.

`C#CCCCCNC(=O)c1cc2n(n1)CCCN(C(=O)OCc1cc(C(F)(F)F)cc(C(F)(F)F)c1)C2` [Example 190] showed an IC50 of at most 100 nM.

`O=C(O)C1CNCCN1C(=O)c1cc2n(n1)CCCN(C(=O)OCc1cc(C(F)(F)F)cc(C(F)(F)F)c1)C2` (stereo not drawn) [Example 191]: the IC50 is at most 100 nM.

In turn, `O=C(O)C1CN(C(=O)c2cc3n(n2)CCCN(C(=O)OCc2cc(C(F)(F)F)cc(C(F)(F)F)c2)C3)CCN1` (stereo not drawn) [Example 192] displayed an IC50 of at most 100 nM.

`O=C(OCc1cc(Cl)cc(C(F)(F)F)c1)N1CCCn2nc(C(=O)N3CCCNCC3)cc2C1` [Example 193] yielded an IC50 of at most 100 nM.

For the origin of these results see patent US20160039825A1 (BIOGEN MA INC., priority 2013, published 2016).
